{
  "source": "patent US20150224164A1",
  "about": "“TREATMENT OF AUTISM SPECTRUM DISORDERS USING GLYCYL-L-2-METHYLPROLYL-L-GLUMATIC ACID” (Neuren Pharmaceuticals Limited, priority 2013, published 2015)",
  "key": {"17 month old rats": {"test_system": "17 month old rats", "experiment": "8-arm radial maze, spatial working memory", "type": "in vivo, rat", "conditions": "for WCC8-12 score, improvement across days: 9-day washout", "description": "The apparatus consists of a central platform communicating with 8 identical arms, each with a food cup at the end of the arm Rats were partially food-deprived for at least 10 days prior to, and throughout the radial maze procedure. The maze was assembled and positioned so that the experimenter could clearly observe the rats' behavior from a predetermined location. The experimenter numbered the arms of the maze according to their orientation from one to eight in a clock-wise direction. On day one the doors were inserted into the arms and each rat was confined in the central platform with 20 food pellets for 5 minutes. […] The following day the rats were allowed five minutes to explore the whole maze. All arms were baited with two food pellets in the food cup located at the end of each arm, and one pellet at both the entrance and middle of each arm. This was repeated for at least five, but up to eight days for rats that explored fewer than eight arms in two consecutive sessions. […] At this point it was decided that one of the old rats that had made only one arm entry on eight of the nine days should be excluded from future testing in this procedure. Otherwise all rats were included regardless of the amount of exploring they performed in pre-training. […] 30 days before the test (five days after pre-training) the 17 Male Wistar month old rats were implanted (under halothane anesthesia) with sub-cutaneous mini-osmotic pumps (Alzet) to dispense drug continuously for 3 weeks. At the completion of the infusion the pumps were removed and the wounds re-sutured (9-day washout allowed). The treatment groups were: • 1. young controls (4 months old), n=6; • 2. saline n=10; • 3. G-2-MePE low dose (2.4 mg/kg/day) n=13 • 4. G-2-MePE high dose (12.4 mg/kg/day) n=5 Working memory testing commenced on the ninth day of washout. Rats received 10 daily training sessions over 12 days. […] The experimenter recorded the sequence of arm entries with pen and paper. […] The time taken to enter all eight arms, when this occurred, was recorded. […]"}, "[1]": {"test_system": "hippocampus slices from MeCP2 deficient mice", "experiment": "Hippocampal long-term potentiation, fEPSP slope (Example 8)", "type": "in vivo, mouse", "conditions": "20 mg/kg/day i.p. week 4 to 9; vs saline", "description": "MeCP2 deficient mice have been previously reported to suffer from functional and ultrastructural synaptic dysfunction, significant impairment of hippocampus-dependent memory and hippocampal long-term potentiation (LTP) (Moretti et al. The Journal of Neuroscience. 2006. 26(1):319-327). To test the effects of the G-2-MePE treatment on synaptic function in the RTT model we compared hippocampal LTP in both vehicle and G-2-MePE treated animals at 9 weeks of age. To do so, we measured the slope of the fEPSP as a % of baseline potential in neurons in slices of hippocampus from MeCP2 deficient mice treated with either saline or G-2-MePE (FIG. 23)."}, "adult MeCP2+/- mice": {"test_system": "adult MeCP2+/- mice", "experiment": "Ocular dominance plasticity, optical imaging (Example 10)", "type": "in vivo, mouse", "conditions": "4 days monocular deprivation, daily i.p.", "procedure": "Adult (>P60) wild type (SVEV or BL6) and MeCP2 (+/−) mutant females (BL6) are used for this experiment. The wild type control group is composed of both wild type littermates of MeCP2+/− females or wild type age matched SVEV females. For monocular deprivation, animals are anesthetized with Avertin (0.016 ml/g) and the eyelids of one eye is sutured for 4 days. Prior to imaging, the suture is removed and the deprived eye re-opened. Only animals in which the deprivation sutures are intact and the condition of the deprived eye appears healthy are used for the imaging session. For G-2-MePE signaling activation, a solution containing G-2-MePE is injected intra-peritoneally (IP) daily for the entire period of deprivation. For the imaging sessions mice are anesthetized with urethane (1.5 g/kg; 20% of the full dosage is administered IP each 20-30 minutes up to the final dosage, 0.02 ml of cloroprothixene 1% is also injected together with the first administration). The skull is exposed and a custom-made plate is glued on the head to minimize movement. The skull is thinned over V1 with a dremel drill and covered with an agarose solution in saline (1.5%) and a glass coverslip. During the imaging session, the animal is constantly oxygenated, its temperature maintained with a heating blanket and the eyes periodically treated with silicone oil; physiological conditions are constantly monitored. […]"}, "MeCP2-/y mice": {"test_system": "MeCP2-/y mice", "experiment": "Heart rate measurements (Example 10)", "type": "in vivo, mouse", "conditions": "8 weeks old, treated from P15", "procedure": "Real time cardiac pulse rate is measured using a tail clip sensor (Mouse OX Oximeter—Oakmont, Pa.). Mice are not anesthetized but physically restrained in a fitted open plastic tube. Prior to the recording session the tube is placed overnight in the cages housing the experimental animals to allow habituation. Body temperature is maintained at ˜82-84° F. throughout the recording time. We record 3 trials of 15 minutes for each mouse, mice are 8 weeks old and treated with vehicle or G-2-MePE from P15."}, "gastrointestinal cells": {"test_system": "gastrointestinal cells", "conditions": "cited from earlier work"}},
  "note": "Where a SMILES comes first, the peptide text is derived from it.",
  "data": [
    {"smiles": "C[C@@]1(C(=O)N[C@@H](CCC(=O)O)C(=O)O)CCCN1C(=O)CN", "note": "[Example G-2-MePE, Glycyl-L-2-methylprolyl-L-glutamic acid] (HELM PEPTIDE1{G.[C[C@@]1(C(=O)[*:2])CCCN1[*:1]].E}$$$$V2.0)", "values": [
      {"measurement": "WCC8-12 score, improvement across days", "setting": "17 month old rats; high dose 12.4 mg/kg/day s.c. pump 3 weeks", "result": "showed the greatest improvement across days"},
      {"measurement": "correct maze choices averaged across days", "setting": "17 month old rats; higher dose vs vehicle, p<0.05", "result": "more correct entries"},
      {"measurement": "WCC8-12 score, improvement across days", "setting": "17 month old rats; low dose 2.4 mg/kg/day s.c. pump 3 weeks", "result": "very little difference"},
      {"measurement": "slope of fEPSP (LTP)", "setting": "[1]", "result": "increased the slope"},
      {"measurement": "ocular dominance plasticity", "setting": "adult MeCP2+/- mice", "result": "reduces the OD plasticity"},
      {"measurement": "occurrence of irregular, lower heart rate", "setting": "MeCP2-/y mice", "result": "significantly reduced"},
      {"measurement": "degradation by gastrointestinal cells", "setting": "gastrointestinal cells", "result": "not degraded"},
      {"measurement": "uptake by gastrointestinal cells", "setting": "gastrointestinal cells", "result": "taken up"}
    ]}
  ]
}
